The values that follow come from paper PMC12500448 (Frontiers in Pharmacology, 2025).

The nature of data set [1]: Pharmacokinetics of quetiapine and N-desalkylquetiapine in rats with or without nicardipine. Format: in vivo, Sprague-Dawley rats. As to conditions: rat; for CL/F: read-out: CLz/F (converted). The method, then:
Due to the similarity between their hepatic enzyme system and humans, Sprague-Dawley male rats are widely used in pharmacokinetics ([Martignoni et al., 2006]; [Riccardi et al., 2018]). This pharmacokinetic study was conducted on eight healthy male Sprague-Dawley rats provided by the Animal Experiment Center of the First Affiliated Hospital of Wenzhou Medical University (Zhejiang, China). Animals were housed in an environment with a temperature of 20 °C–26 °C, relative humidity of 55% ± 15%, and a light-dark cycle of 12 h/day, in strict following the guidelines for the care and use of laboratory animals by the National Research Council. The research protocol was adhered to the ARRIVE guidelines and was approved by the Experimental Animal Ethics Committee of the First Affiliated Hospital of Wenzhou Medical University (WYYY-IACUC-AEC-2023–064). Before the formal experiment, in order to mitigate the influence of food on drug absorption, Sprague-Dawley rats were fasted for 12 h and then randomly divided into two groups. Nicardipine and quetiapine are dissolved using corn oil. […] Following centrifugation at 8,000 rpm for 10 min, 100 μL of plasma supernatant was precisely taken into a new clean and dry 1.5 mL EP tube, where 300 μL acetonitrile and 10 μL IS working solution (200 ng/mL) were added, and after vortexing and centrifugation, the supernatants were taken for injection and analysis.

Data set [2] has as its system rat liver microsomes (RLM). Kind of data set: Screening of 10 drugs for inhibition of quetiapine metabolism (formation of N-desalkylquetiapine) in RLM. It counts as in vitro ADME. As to conditions: RLM 0.3 mg/mL, drug 100 μM, quetiapine at Km. The method, then: (§1) 200 μL enzymatic kinetic incubation system was adjusted according to the measurement purpose with the corresponding incubation conditions. […] The mixture without NADPH was pre-incubated at 37 °C in a water bath for 5 min, then 10 μL NADPH (20 mM) was added to initiate the reaction. Following a further 30 min incubation, the reaction was terminated by freezing at −80 °C. Prior to sample thawing, 400 μL acetonitrile was added to precipitate proteins, and 20 μL lurasidone (200 ng/mL) was added as IS. After complete dissolution of the samples, they were vortexed for 2 min and centrifuged for 10 min (13,000 rpm), then the supernatants were taken for UPLC-MS/MS detection and analysis.

Details of data set [3]: method as in Chen et al., 2024. The following applies: in vivo; ref Chen et al., 2024; cited from earlier work.
For data set [4] the following is noted: treatment of refractory depression; ref Reif et al., 2023; cited from earlier work.
For data set [5], the system named is human liver microsomes (HLM). As to conditions: 1-200 μM quetiapine. The method, then: as §1
(§2) The Michaelis-Menten curves, IC50 curves, Lineweaver–Burk plots, and the mean plasma concentration–time curves were generated using GraphPad Prism software (version 9.5; GraphPad Software Inc., San Diego, CA). The pharmacokinetic parameters were derived using the non-compartmental model analysis with Drug and Statistics software (version 3.0 software, Mathematical Pharmacology Professional Committee of China, Shanghai, China).

The subject of data set [6] is rat liver microsomes (RLM). As to conditions: 1-200 μM quetiapine. The method, then: as §1, §2
[7] abbreviates: metabolite N-desalkylquetiapine in plasma, quetiapine 15 mg/kg + nicardipine 4 mg/kg by gavage.
[8] abbreviates: metabolite N-desalkylquetiapine in plasma, quetiapine 15 mg/kg by gavage alone.
The mark [9] stands for this setting: male, Sprague-Dawley, plasma, po, 15 mg/kg, quetiapine in plasma, quetiapine 15 mg/kg + nicardipine 4 mg/kg by gavage 30 min before.
Where [10] appears, read: male, Sprague-Dawley, plasma, po, 15 mg/kg, quetiapine in plasma, quetiapine 15 mg/kg by gavage alone.

Where two headings read alike, the source gives them in different places.

Consider `c1ccc2c(c1)N=C(N1CCNCC1)c1ccccc1S2` [N-desalkylquetiapine], for which, in data set [1] (setting [7]), the “AUC0−∞” value came to 80.29 ± 27.62 ng·h/mL, the “AUC(0-t)” value amounted to 70.19 ± 22.75 ng·h/mL, the CLz/F amounted to 3499.8 ± 1541 mL/min/kg and the Cmax is recorded as 14.98 ± 11.59 ng/mL. For the same molecule, in data set [1] (setting [7]), the Tmax is 0.69 ± 0.55 h and the t1/2 turned out to be 8.54 ± 5.49 h. Also, in data set [1] (setting [8]), the “AUC0−∞” value is 161.47 ± 62.64 ng·h/mL, the “AUC(0-t)” value was found to be 160.62 ± 63.16 ng·h/mL, the CLz/F amounted to 1692 ± 501.3 mL/min/kg and the Cmax is given as 50.66 ± 32.77 ng/mL. In data set [1] (setting [8]), the Tmax amounted to 0.31 ± 0.13 h and the t1/2 is given as 3.19 ± 1.76 h.

As for `O=c1c(O)c(-c2ccc(O)c(O)c2)oc2cc(O)cc(O)c12` [quercetin], in data set [2], the “inhibition rate against quetiapine metabolism” value is listed as 61.47%.

Take `COC(=O)C1=C(C)NC(C)=C(C(=O)OCCN(C)Cc2ccccc2)C1c1cccc([N+](=O)[O-])c1` (stereo not shown) [nicardipine]: in data set [3], the “increase of AUC0−∞ of almonertinib” value is listed as 0.87 fold and the “increase of AUC(0-t) of almonertinib” value is 0.95 fold.

As to `OCCOCCN1CCN(C2=Nc3ccccc3Sc3ccccc32)CC1` [quetiapine], the “incidence of adverse reactions” value in data set [4] is given as 78.0%. In data set [4], the “incidence of serious adverse reactions” value is recorded as 5.7%. Further, the Km in data set [5] turned out to be 50.8 µM; in data set [6], 48.8 µM. Moreover, the values for the AUC(0-inf) in data set [1] (setting [9]) and in data set [1] (setting [10]) were 108 ± 31.4 ng·h/mL and 38.1 ± 6.91 ng·h/mL, respectively. Moreover, the results for the half-life in data set [1] (setting [9]) and in data set [1] (setting [10]) were 5.16 ± 2.82 h and 5.12 ± 3.56 h, respectively. Besides, the AUC(0-t) was 106 ± 30.3 ng·h/mL in data set [1] (male, Sprague-Dawley, plasma, po, 15 mg/kg, quetiapine in plasma, quetiapine 15 mg/kg + nicardipine 4 mg/kg by gavage 30 min before, read-out: AUC(0-t)) and 36 ± 5.48 ng·h/mL in data set [1] (male, Sprague-Dawley, plasma, po, 15 mg/kg, quetiapine in plasma, quetiapine 15 mg/kg by gavage alone, read-out: AUC(0-t)). In addition, the values for the CL/F in data set [1] (setting [9]) and in data set [1] (setting [10]) were 2460 mL/min/kg and 6730 mL/min/kg, respectively. The Cmax in data set [1] (male, Sprague-Dawley, plasma, po, 15 mg/kg, quetiapine in plasma, quetiapine 15 mg/kg + nicardipine 4 mg/kg by gavage 30 min before, read-out: Cmax) was found to be 28.8 ± 10.7 ng/mL; in data set [1] (male, Sprague-Dawley, plasma, po, 15 mg/kg, quetiapine in plasma, quetiapine 15 mg/kg by gavage alone, read-out: Cmax) it was 12 ± 2.28 ng/mL. Also, the Tmax amounted to 0.88 ± 0.52 h in data set [1] (male, Sprague-Dawley, plasma, po, 15 mg/kg, quetiapine in plasma, quetiapine 15 mg/kg + nicardipine 4 mg/kg by gavage 30 min before, read-out: Tmax) and 0.94 ± 0.52 h in data set [1] (male, Sprague-Dawley, plasma, po, 15 mg/kg, quetiapine in plasma, quetiapine 15 mg/kg by gavage alone, read-out: Tmax).
